Laboratory results published in US20230190774A1, “METHOD OF USING SUBSTRATES OF AKR1Bl/AKR1B10 AS ANTI-CANCER DRUGS” (Beijing Normal University Hong Kong Baptist University …, priority 2015, published 2023).
“Also recorded” adds a separate entry of the source.

What was measured:
CaCo2 cells [1] = assay: Cytotoxicity assay (cell survival rate, MTT); format: cell-based; conditions: for Protection against 2DG toxicity by AKR1Bs inhibitor (survival rate): inhibitor 24 h, then 2DG (20 mM) for additional 48 h
Experimental: (§1) HepG2 cells, SKOV3 cells, HCT116 cells and CaCo2 cells were cultured in DMEM medium, SW480 cells in 1640 medium, and HT29 cells in McCoy’s 5A medium. All cell culture media were supplemented with 10% FBS, 1% PSN, and cells were cultured in a humidified incubator containing 5% CO2 at 37° C. In cytotoxicity assays, cells were seeded at 1 × 10^5 cells/well in 96 well plates with full medium. In GSH assay and Western blot analysis, cells were seeded at 3× 10^6 cells/well in 6 well plates.
(§2) The AKR1Bs substrates’ cytotoxicity was assessed by cell survival rate using MTT assay. After the cells were treated with the substrates for the length of time indicated, MTT was added to a final concentration of 0.5 mg/ml in each well of a 96-well plate, and the plates were incubated at 37° C. for 4 hour. Then DMSO was added to dissolve the formazan product, the amount of which is proportional to the number of live cells. The absorbance of dissolved dye was measured at 540 nm using an automatic microplate reader.

HCT116 cells [2] = assay: Cytotoxicity assay (cell survival rate, MTT); format: cell-based; conditions: for Protection against 2DG toxicity by AKR1Bs inhibitor (survival rate): inhibitor 24 h, then 2DG (20 mM) for additional 48 h
Experimental: as §1, §2

HepG2 cells [3] = assay: Cytotoxicity assay (cell survival rate, MTT); format: cell-based; conditions: for Protection against 2DG toxicity by AKR1Bs inhibitor (survival rate): inhibitor 24 h, then 2DG (20 mM) for additional 48 h
Experimental: as §1, §2

SKOV3 cells [4] = assay: Cytotoxicity assay (cell survival rate, MTT); format: cell-based; conditions: for Protection against 2DG toxicity by AKR1Bs inhibitor (survival rate): inhibitor 24 h, then 2DG (20 mM) for additional 48 h
Experimental: as §1, §2

HT29 cells = assay: Cytotoxicity assay (cell survival rate, MTT); format: cell-based; conditions: substrate alone, 2DG for 72 hours
Experimental: as §2, with “HepG2 cells, SKOV3 cells, HCT116 cells and CaCo2 cells were cultured in DMEM medium, SW480 cells in 1640 medium, and HT29 cells in McCoy’s 5A medium. […] In cytotoxicity assays, cells were seeded at 1 × 10^5 cells/well in 96 well plates with full medium. In GSH assay and Western blot analysis, cells were seeded at 3× 10^6 cells/well in 6 well plates. The AKR1Bs” for “The AKR1Bs”

SW480 cells = assay: Cytotoxicity assay (cell survival rate, MTT); format: cell-based; conditions: substrate alone, 2DG for 72 hours
Experimental: as §2, with “HepG2 cells, SKOV3 cells, HCT116 cells and CaCo2 cells were cultured in DMEM medium, SW480 cells in 1640 medium, and HT29 cells in McCoy’s 5A medium. […] In cytotoxicity assays, cells were seeded at 1 × 10^5 cells/well in 96 well plates with full medium. In GSH assay and Western blot analysis, cells were seeded at 3× 10^6 cells/well in 6 well plates. The AKR1Bs” for “The AKR1Bs”

CaCo2 cells [5] = assay: GSH assay of cell lysates; format: cell-based; conditions: for Restoration of GSH level in 2DG treated cells by AKR1Bs inhibitor: inhibitor (40 µM) 24 h, then 2DG (20 mM) 48 h
Experimental: as §1
(§3) The cells were washed in cold PBS and then scraped into 300 µL of PBS. The cells were disrupted by ultrasonicator on ice followed by centrifuged at 3500 rpm at 4° C. The supernatant was transferred to a fresh tube and used for GSH assay using GSH assay kit. The concentrations of GSH in cell lysates were determined using the standard GSH calibration curve. The GSH detection for each sample was performed at least three times.

HCT116 cells [6] = assay: GSH assay of cell lysates; format: cell-based; conditions: for Restoration of GSH level in 2DG treated cells by AKR1Bs inhibitor: inhibitor (40 µM) 24 h, then 2DG (20 mM) 48 h
Experimental: as §1, §3

HepG2 cells [7] = assay: GSH assay of cell lysates; format: cell-based
Experimental: as §1, §3

SKOV3 cells [8] = assay: GSH assay of cell lysates; format: cell-based
Experimental: as §1, §3

AKR1B1 [9] = target: T1, AKR1B1 (Homo sapiens, UniProt P15121); assay: Enzyme activity assay (NADPH oxidation), purified AKR1B1; format: biochemical; conditions: 20 mM substrate, pH 6.2, 30° C.
Experimental: (§4) Assay of AKR1B1 and AKR1B10 enzymes activities were conducted in 1 ml of the reaction mixture containing 135 mM sodium phosphate buffer (pH 6.2 for AKR1B1 or pH 7.0 for AKR1B10), 0.2 mM NADPH, 0.3 M ammonium sulfate, 2 µg purified protein and 20 mM of their substrate as indicated. The reaction mix was incubated at 30° C. for 30 minutes (min). Protein-free blank controls were included. The decrease of NADPH was monitored by spectrophotometer at 340 nm. Enzyme activity was calculated as the amount of NADPH oxidized/min/mg of protein (Shen Y et al., Chem Biol Interact. 2011, 191(1-3): 192-198).

AKR1B10 [10] = target: T2, AKR1B10 (Homo sapiens, UniProt O60218); assay: Enzyme activity assay (NADPH oxidation), purified AKR1B10; format: biochemical; conditions: 20 mM substrate, pH 7.0, 30° C.
T2 sequence (O60218 whole entry): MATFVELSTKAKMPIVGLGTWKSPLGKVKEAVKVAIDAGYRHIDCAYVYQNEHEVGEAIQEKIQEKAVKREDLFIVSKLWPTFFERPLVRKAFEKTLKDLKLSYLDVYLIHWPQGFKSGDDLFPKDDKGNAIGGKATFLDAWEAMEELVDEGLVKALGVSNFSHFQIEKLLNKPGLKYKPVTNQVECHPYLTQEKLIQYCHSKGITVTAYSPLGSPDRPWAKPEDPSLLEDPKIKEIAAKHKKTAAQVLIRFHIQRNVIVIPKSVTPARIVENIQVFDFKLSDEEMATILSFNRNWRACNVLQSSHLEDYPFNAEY
Experimental: as §4

AKR1B1 [11] = target: T1, AKR1B1; conditions: ND = no detectable activity or less than 32 nmol/min/mg; cited from earlier work
AKR1B10 [12] = target: T2, AKR1B10; conditions: ND = no detectable activity or less than 32 nmol/min/mg; cited from earlier work
glycolysis = conditions: background statement; cited from earlier work
[13] = substrate alone, 2DG for 72 hours
[14] = inhibitor (40 µM) 24 h, then 2DG (20 mM) 48 h

## O=CC[C@@H](O)[C@H](O)[C@H](O)CO [2DG, 2-deoxyglucose]
CaCo2 cells [1]; [13]
  Cytotoxicity of AKR1Bs substrate (cell survival rate): more sensitive to 2DG than HepG2 and SKOV3
HCT116 cells [2]; [13]
  Cytotoxicity of AKR1Bs substrate (cell survival rate): more sensitive to 2DG than HepG2 and SKOV3
HepG2 cells [3]; [13]
  Cytotoxicity of AKR1Bs substrate (cell survival rate): more sensitive; also recorded: not as efficient as glyceraldehyde and diacetyl
SKOV3 cells [4]; [13]
  Cytotoxicity of AKR1Bs substrate (cell survival rate): more sensitive; also recorded: not as efficient as glyceraldehyde and diacetyl
HT29 cells
  Cytotoxicity of AKR1Bs substrate (cell survival rate): more resistant
SW480 cells
  Cytotoxicity of AKR1Bs substrate (cell survival rate): more resistant
CaCo2 cells [5]; 2DG (20 mM) 48 h
  GSH level in the presence of 2DG: decreased significantly
HCT116 cells [6]; 2DG (20 mM) 48 h
  GSH level in the presence of 2DG: decreased significantly
HepG2 cells [7]; 2DG (20 mM) 48 h
  GSH level in the presence of 2DG: decreased significantly
SKOV3 cells [8]; 2DG (20 mM) 48 h
  GSH level in the presence of 2DG: decreased significantly
AKR1B1 [9]
  Efficiency as substrate of AKR1B1 (rate of NADPH depletion): then 2DG
AKR1B1 [9]; listed as 2 DG
  Efficiency as substrate of AKR1B1 (rate of NADPH depletion): worst substrate among the three
AKR1B10 [10]
  Efficiency as substrate of AKR1B10 (rate of NADPH depletion): then 2DG
AKR1B10 [10]; listed as 2 DG
  Efficiency as substrate of AKR1B10 (rate of NADPH depletion): worst substrate among the three
AKR1B1 [11]
  AKR1B1 activity, amount of NADPH (nmol) oxidized per min per mg of protein: 149 nmol/min/mg
AKR1B10 [12]
  AKR1B10 activity, amount of NADPH (nmol) oxidized per min per mg of protein: 87 nmol/min/mg
glycolysis
  Inhibition of glycolysis: 15-40%

## O=C[C@H](F)[C@@H](O)[C@H](O)[C@H](O)CO [2FDG, 2-fluorodeoxy-D-glucose]
glycolysis
  Potency as glycolysis inhibitor relative to 2DG: more potent glycolysis inhibitor than 2DG

## NC(=O)[C@@H]1C[C@]2(NC(=O)NC2=O)c2cc(F)ccc2O1 [Fidarestat]
CaCo2 cells [1]
  Protection against 2DG toxicity by AKR1Bs inhibitor (survival rate): protected
HCT116 cells [2]
  Protection against 2DG toxicity by AKR1Bs inhibitor (survival rate): protected
HepG2 cells [3]
  Protection against 2DG toxicity by AKR1Bs inhibitor (survival rate): less effective in protecting
SKOV3 cells [4]
  Protection against 2DG toxicity by AKR1Bs inhibitor (survival rate): less effective in protecting
CaCo2 cells [5]
  Restoration of GSH level in 2DG treated cells by AKR1Bs inhibitor: able to increase
HCT116 cells [6]
  Restoration of GSH level in 2DG treated cells by AKR1Bs inhibitor: able to increase

## COc1ccc2c(C(=S)N(C)CC(=O)O)cccc2c1C(F)(F)F [Tolrestat]
CaCo2 cells [1]
  Protection against 2DG toxicity by AKR1Bs inhibitor (survival rate): dose-dependently protected
HCT116 cells [2]
  Protection against 2DG toxicity by AKR1Bs inhibitor (survival rate): dose-dependently protected
HepG2 cells [3]
  Protection against 2DG toxicity by AKR1Bs inhibitor (survival rate): dose-dependently protected
SKOV3 cells [4]
  Protection against 2DG toxicity by AKR1Bs inhibitor (survival rate): dose-dependently protected
CaCo2 cells [5]
  Restoration of GSH level in 2DG treated cells by AKR1Bs inhibitor: significantly restored
HCT116 cells [6]
  Restoration of GSH level in 2DG treated cells by AKR1Bs inhibitor: significantly restored
HepG2 cells [7]; [14]
  Restoration of GSH level in 2DG treated cells by AKR1Bs inhibitor: significantly restored
SKOV3 cells [8]; [14]
  Restoration of GSH level in 2DG treated cells by AKR1Bs inhibitor: significantly restored
